Key:
ALYREF [1] = target: T1, ALYREF (Mus musculus, UniProt O08583, DEL171-171); test: cellular thermal shift assay (also DARTS in lysate); format: cell-based; settings: Flag-tagged mutant transfected into mouse cardiomyocytes
T1 construct: full length; endogenous in neonatal mouse cardiomyocytes (wild type); Flag-tagged plasmids transfected into the cardiomyocytes for the deletion mutants

ALYREF [2] = target: T2, ALYREF (Mus musculus, UniProt O08583, DEL113-113); test: as above; format: cell-based; settings: Flag-tagged mutant transfected into mouse cardiomyocytes
T2 construct: full length; endogenous in neonatal mouse cardiomyocytes (wild type); Flag-tagged plasmids transfected into the cardiomyocytes for the deletion mutants

ALYREF [3] = target: T3, ALYREF (Mus musculus, UniProt O08583); test: as above; format: cell-based; settings: mouse cardiomyocytes; 40 to 67 °C, 3 min; vs DMSO
T3 construct: full length; endogenous in neonatal mouse cardiomyocytes (wild type); Flag-tagged plasmids transfected into the cardiomyocytes for the deletion mutants

[4] = target: ALYREF (purified recombinant, pSMARt‐I‐ALYREF) (Mus musculus, UniProt O08583); test: in vitro droplet (phase separation) assay, microscopy; format: biochemical; settings: 250 mmol/L Tris pH 8.0, 10% PEG-8000, room temperature

COc1cccc2c1C(=O)c1c(O)c3c(c(O)c1C2=O)C[C@@](O)(C(=O)CO)C[C@@H]3O[C@H]1C[C@H](N)[C@H](O)[C@H](C)O1 [doxorubicin]
binding abolished (DARTS, CESTA) (ALYREF [1]): Deletion of D171 abolished the interaction between ALYREF and DOX
binding retained (DARTS, CESTA) (ALYREF [2]): DOX remained capable of binding to the ΔD113 mutant
thermal stability (CESTA) (ALYREF [3]): DOX treatment significantly increased the thermal stability of ALYREF compared with the DMSO control
droplet disruption [4]: also disrupted by DOX, which caused droplet disintegration and structural irregularity
